Assay results taken from PMC7997032, “Organic synthesis and anti-influenza A virus activity of cyclobakuchiols A, B, C, and D” (PLoS ONE, 2021).
Several values for one entry are separate records, joined by “and”; a condition that tells them apart may be missing. Equal entries are not always repeated.

What was measured:
[1] = tested on: A/PR/8/34 virus; assay: Immunofluorescence staining of viral NP in influenza A virus-infected MDCK cells; conditions: for NP/DAPI (%) ave: average of 9 wells; for NP/DAPI (%): single well
Description: (§1) MDCK cells were seeded on a 96-well plate at 1 × 10^4 cells/well. […] Each mixture was added to the cells at 37°C in the presence of 5% CO2. […] After influenza A viral infection for 24 h, the cells were fixed with 4% paraformaldehyde in phosphate-buffered saline (PBS) for 30 min at 4°C and subsequently permeabilized by the addition of 0.3% Triton X-100 for 20 min at 25°C. A mouse primary antibody was used to detect the NP of A/PR/8/34 or A/WSN/33 viruses (FluA-NP 4F1; SouthernBiotech, AL, USA). Alexa Fluor488-conjugated goat anti-mouse IgG (H + L) antibody (Thermo Fisher Scientific) was used as the secondary antibody. Cell nuclei were then stained using diamidino-2-phenylindole (DAPI) (Thermo Fisher Scientific). Wells were photographed using a fluorescence microscope (BIOREVO BZ-X700; Keyence, Osaka, Japan). The proportion of influenza A NP-positive cells per DAPI-positive cells was calculated based on measurements recorded using BZ-X Analyzer software (Keyence).

[2] = tested on: A/CA/7/09 viral HA; design: method as in PMID 26446794; conditions: cited from earlier work
[3] = tested on: A/PR/8/34 virus; assay: RT-qPCR of viral mRNAs (NP, NS1, PA, PB1, PB2, M2) in infected MDCK cells; format: cell-based, influenza A H1N1 virus
[4] = tested on: A/PR/8/34 viral NA; design: method as in PMID 26446794; conditions: cited from earlier work
[5] = tested on: A/WSN/33 virus; assay: Influenza A viral growth assay (viral titer of culture media); format: cell-based, influenza A H1N1 virus; conditions: for viral titer of conditioned media compared with DMSO: A/WSN/34 as printed, 12.5 μM
[6] = tested on: A/WSN/33 virus; assay: Viability of influenza A virus-infected MDCK cells by naphthol blue-black staining; format: cell-based, influenza A H1N1 virus; conditions: A/WSN/33, MOI 10, 72 h, 0.4–25 μM
Description: MDCK cells were seeded on a 96-well plate (1 × 10^4 cells/well). 2–5 (0.4–25 μM) were mixed with A/PR/8/34, A/CA/7/09, or A/WSN/33 viruses in 10% FBS-supplemented growth medium at a multiplicity of infection (MOI) of ten. DMSO (0.004–1%) or 1 (0.4–25 μM) were used as negative or positive controls, respectively. […] After incubation, the cells were stained with naphthol blue–black, as previously described. Viable cells in each well were stained blue, whereas dead cells remained unstained.

[7] = tested on: recombinant A/PR/8/34 viral HA protein; design: method as in PMID 26446794; conditions: cited from earlier work
[8] = tested on: MDCK cells; assay: MTT assay (cytotoxicity against MDCK cells); format: cell-based, canine; conditions: ≤50 μM, 24 or 72 h
Summary of the method: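 Compounds at 0.8–100 μM (final DMSO up to 1%) in DMEM with 1% BSA and 4 mM L-glutamine incubated with cells 24 or 72 h at 37°C, 5% CO2. Viability measured by MTT.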

[9] = tested on: canine interferon-β (Ifn-β); assay: RT-qPCR of Ifn-β mRNA in MDCK cells with or without A/PR/8/34 virus; format: cell-based; conditions: for MDCK IFN-b mRNA, ave / MDCK IFN-b mRNA, individual replicates: 12.5uM, relative to virus - DMSO; for MDCK IFN-b mRNA, ave: ave of #1-3 exp; for MDCK IFN-b mRNA, individual replicates: replicates 1-3 of #1, #2, #3 exp
[10] = tested on: A/WSN/33 virus; assay: Immunofluorescence staining of viral NP in influenza A virus-infected MDCK cells; conditions: for percentage of influenza A NP-positive cells relative to DMSO: 24 h, Fig 4D; for NP/DAPI (%) ave: WSN
Description: as §1

[11] = tested on: A/PR/8/34 viral HA; design: method as in PMID 26446794; conditions: cited from earlier work
[12] = tested on: Nrf2; assay: Nrf2 reporter assay (dual luciferase system) in MDCK cells; format: cell-based, canine
[13] = tested on: A/PR/8/34 virus; format: cell-based
[14] = tested on: A/CA/7/09 viral NA; design: method as in PMID 26446794; conditions: cited from earlier work
[15] = tested on: A/PR/8/34 virus; assay: Influenza A viral growth assay (viral titer of culture media); format: cell-based, influenza A H1N1 virus; design: viral titer of culture media, individual replicate / viral titer of culture media, ave: unit not given here
[16] = MDCK cells, PR8 virus, relative to DMSO (about 1), ave of #1-3 exp (9 values)
[17] = MDCK cells, PR8 virus, relative to DMSO, replicates 1-3 of #1, #2, #3 exp
[18] = 12.5 μM, 24h WB, average of 3 experiments
[19] = 12.5 μM, 24h WB, single experiment
[20] = 12.5 μM, 24 h post-infection, Fig 7C

C=C[C@@](C)(/C=C/c1ccc(O)cc1)CCC=C(C)C [(+)-(S)-bakuchiol, reference compound]
percentage of influenza A NP-positive cells relative to DMSO ([1]; A/PR/8/34, 3.1 μM, 24 h, Fig 4B): significantly reduced
NP/DAPI (%) ave ([1]; A/PR/8/34, 3.13 uM): 3.314%
NP/DAPI (%) ave ([1]; A/PR/8/34, 6.25 uM): 1.176%
percentage of influenza A NP-positive cells compared with the 5-treatment ([1]; A/PR/8/34, 6.3 μM, 24 h, Fig 4B): significantly reduced
NP/DAPI (%) ave ([1]; A/PR/8/34, 12.5 uM): 0.5619%
NP/DAPI (%) ([1]; A/PR/8/34, 12.5 uM, listed as (+)-S-Bakuchiol): 1.274% and 0.625% and 0.6742% and 0.2454% and 0.2653% and 0.5128% and 0.5703%
NP/DAPI (%) ([1]; A/PR/8/34, 12.5 uM, listed as (+)-S-bakuchiol): 0.4184%
NP/DAPI (%) ave ([1]; A/PR/8/34, 25 uM): 0.5226%
percentage of influenza A NP-positive cells relative to DMSO ([1]; A/PR/8/34, 6.3–12.5 μM, 24 h, Fig 4B): significantly reduced
IC50 ([1]; Influenza A virus, PR/8, MDCK, read-out: half maximal (50%) inhibitory concentration (IC50)): 2100 ± 1200 nM
inhibition of hemagglutination of chicken red blood cells [2]: did not inhibit
reduction in the level of NP mRNA compared with 4 and 5 ([3]; 12.5 μM, 24 h, Fig 6A): significantly stronger
reduction in the level of PB2 mRNA compared with 5 ([3]; 12.5 μM, 24 h, Fig 6E): significantly stronger
relative mRNA expression levels of viral genes (NP, NS1, PA, PB1, PB2, M2) compared with DMSO ([3]; 12.5 μM, MOI 0.1, 24 h): significantly decreased
PR8 NP gene expression qPCR, ave ([3]; MDCK PR8, NP mRNA, relative (DMSO about 1), average of #1-3 exp (n=9)): 0.01761
PR8 NP gene expression qPCR, individual replicate ([3]; MDCK PR8, NP mRNA, relative (DMSO about 1), replicates of #1-3 exp): 0.006615 and 0.02549 and 0.02199 and 0.02377 and 0.03127 and 0.01502 and 0.01903 and 0.00944 and 0.005898
PR8 NS1 gene expression qPCR, ave ([3]; MDCK PR8, NS1 mRNA, relative (DMSO about 1), average of #1-3 exp (n=9)): 0.01277
PR8 NS1 gene expression qPCR, individual replicate ([3]; MDCK PR8, NS1 mRNA, relative (DMSO about 1), replicates of #1-3 exp): 0.005751 and 0.01688 and 0.01532 and 0.01756 and 0.02149 and 0.008029 and 0.01283 and 0.01159 and 0.005477
PR8 PA gene expression qPCR, ave ([3]; MDCK PR8, PA mRNA, relative (DMSO about 1), average of #1-3 exp (n=9)): 0.01401
PR8 PA gene expression qPCR, individual replicate ([3]; MDCK PR8, PA mRNA, relative (DMSO about 1), replicates of #1-3 exp): 0.007199 and 0.01835 and 0.01386 and 0.0158 and 0.019 and 0.01338 and 0.01452 and 0.01667 and 0.00733
PR8 M2 gene expression qPCR, ave [3, 16]: 0.01399
PR8 PB1 gene expression qPCR, ave [3, 16]: 0.009536
PR8 PB2 gene expression qPCR, ave [3, 16]: 0.01448
PR8 M2 gene expression qPCR, individual replicates [3, 17]: 0.006766 and 0.02094 and 0.01741 and 0.01624 and 0.02057 and 0.01274 and 0.01424 and 0.01232 and 0.004647
PR8 PB1 gene expression qPCR, individual replicates [3, 17]: 0.005288 and 0.01134 and 0.00694 and 0.008199 and 0.02025 and 0.01044 and 0.005541 and 0.01144 and 0.006386
PR8 PB2 gene expression qPCR, individual replicates [3, 17]: 0.00629 and 0.02178 and 0.01747 and 0.01955 and 0.0211 and 0.01165 and 0.01377 and 0.01287 and 0.005833
inhibition of viral NA activity [4]: did not inhibit
viral titer of culture media, ave ([5]; A/WSN/33 (WSN), 12.5uM, 12h, average of #1-3 exp (n=9)): 15811.1
viral titer of conditioned media compared with DMSO ([5]; 48–72 h): not reduced
viral titer of conditioned media compared with DMSO ([5]; 24 h): significantly reduced
naphthol blue-black staining of infected cells [6]: not stained
inhibition of trypsin digestion of recombinant HA protein [7]: did not inhibit
cell viability / toxicity (MTT) [8]: not affected
virus-induced upregulation of Ifn-β mRNA [9]: significantly reduced
MDCK IFN-b mRNA, ave ([9]; virus +): 3.367
MDCK IFN-b mRNA, individual replicates ([9]; virus +): 2.6311 and 8.162 and 4.8 and 5.795 and 3.073 and 1.349 and 1.382 and 0.9842 and 2.128
MDCK IFN-b mRNA, ave ([9]; virus -): 1.794
MDCK IFN-b mRNA, individual replicates ([9]; virus -): 0.2606 and 0.6947 and 2.008 and 8.353 and 0.6874 and 0.5651 and 1.697 and 0.7342 and 1.151
percentage of influenza A NP-positive cells relative to DMSO ([10]; A/WSN/33, 12.5 μM): significantly reduced
percentage of influenza A NP-positive cells relative to DMSO ([10]; A/WSN/33, 3.1–6.3 μM): did not significantly reduce
NP/DAPI (%) ave ([10]; 3.13uM, ave of 9 values (3 exp)): 23.4639%
NP/DAPI (%) ave ([10]; 6.25uM, ave of 9 values (3 exp)): 22.221%
NP/DAPI (%) ave ([10]; 12.5uM, ave of 9 values (3 exp)): 22.092%
NP/DAPI (%) ave ([10]; 25uM, ave of 9 values (3 exp)): 25.1439%
NP/DAPI (%) ave ([10]; ave summary, 3.13%): 23.4639%
NP/DAPI (%) ave ([10]; ave summary, 6.25%): 22.221%
NP/DAPI (%) ave ([10]; ave summary, 12.50%): 22.092%
NP/DAPI (%) ave ([10]; ave summary, 25%): 25.1439%
inhibition of hemagglutination of chicken red blood cells [11]: did not inhibit
Nrf2 activation (reporter assay) in contrast to DMSO ([12]; 12.5 μM, 24 h, MDCK cells): induce Nrf2 activation
pNQO1-ARE-Luc NRF2 reporter assay, ave ([12]; 12.5uM, relative to DMSO trans+, ave of #1-3 exp): 1.302
pNQO1-ARE-Luc NRF2 reporter assay, individual replicates ([12]; 12.5uM, relative to DMSO trans+, two values each of #1, #2, #3 exp): 1.091 and 1.274 and 1.491 and 1.4074 and 1.544 and 1.002
expression of NP and NS1 proteins compared with DMSO (western blot) ([13]; 12.5 μM, 8, 12 or 24 h post-infection): reduced
NP/b-actin ave [13, 18]: 0.4577
NS1/b-actin ave [13, 18]: 0.476
NP mean (western blot signal intensity, ImageJ) [13, 19]: 41.483 and 67.678 and 82.727
NS1/b-actin [13, 19]: 0.411 and 0.4433 and 0.5737
NS1 mean (western blot signal intensity, ImageJ) [13, 19]: 69.425 and 77.937 and 55.734
expression level of NP protein compared with the 4 or 5 treatment groups [13, 20]: significantly reduced
expression levels of NP or NS1 proteins from signal intensities compared with DMSO [13, 20]: significantly reduced
inhibition of viral NA activity [14]: did not inhibit
viral titer of culture media, ave ([15]; A/PR/8/34 (PR8), 12.5uM, 12h, average of #1-3 exp (n=9)): 23333.3
viral titer of conditioned media compared with DMSO ([15]; A/PR/8/34, 12.5 μM, 12–72 h): significantly reduced
